Results on 6 molecules are retold here after PMC6965684, “Characterization of binding, functional activity, and contractile responses of the selective 5‐HT1F receptor agonist lasmiditan” (British Journal of Pharmacology, 2019).

Assay [1] addresses T1, 5-HT2A receptor (Homo sapiens, UniProt P28223).
T1 construct: gene HTR2A; full-length human recombinant receptor in CHO-K1 cells (Ogeda); crude membranes
The assay can be described thus: biochemical. The class given is CHO-K1 membranes. More on the design: radioligand competition binding on cell membranes, filtration and TopCount scintillation counting. The conditions noted are these: for Ki: read-out: 5‐HT2A / pKi (converted). Here is the method:
Competition binding was performed in duplicate in the wells of a 96‐well plate containing binding buffer (optimized for each receptor), cell membrane extracts (approximately 20,000 cells distributed in the 96‐well plate), radiotracer, and test agonist. Non‐specific binding was determined by co‐incubation with 200‐fold excess of competitor. Cells were incubated and exposed to varying concentrations (1 pM to 10 μM) of a range of displacer agonists (see below). The samples were incubated in a final volume of 0.1 ml and then filtered over Unifilter plates (Perkin Elmer, Massachusetts, USA) pretreated for 2 hr to limit tracer non‐specific binding. Filters were washed five times with 0.5 ml of ice‐cold washing buffer (tris 50 mM pH 7.4) and 50 μl of Microscint 20 (Perkin Elmer) were added to each filter. The plates were incubated 15 min at room temperature on an orbital shaker and then counted with a TopCount™ (Perkin Elmer) for 1 min per well. […] Additionally, the reference values obtained were compared to historical values obtained from the same receptor and used to validate the experimental session. […] For the new assays developed in this study (i.e., 5‐ht1E receptor), the two independent pIC50 determined must be concordant with a 1 log unit interval for the assays to be validated. […]

The target of assay [2] is T2, 5-HT1A receptor (Homo sapiens, UniProt P08908).
T2 construct: gene HTR1A; full-length human recombinant receptor in CHO-K1 cells (Ogeda); crude membranes
T2 sequence (P08908 1-422): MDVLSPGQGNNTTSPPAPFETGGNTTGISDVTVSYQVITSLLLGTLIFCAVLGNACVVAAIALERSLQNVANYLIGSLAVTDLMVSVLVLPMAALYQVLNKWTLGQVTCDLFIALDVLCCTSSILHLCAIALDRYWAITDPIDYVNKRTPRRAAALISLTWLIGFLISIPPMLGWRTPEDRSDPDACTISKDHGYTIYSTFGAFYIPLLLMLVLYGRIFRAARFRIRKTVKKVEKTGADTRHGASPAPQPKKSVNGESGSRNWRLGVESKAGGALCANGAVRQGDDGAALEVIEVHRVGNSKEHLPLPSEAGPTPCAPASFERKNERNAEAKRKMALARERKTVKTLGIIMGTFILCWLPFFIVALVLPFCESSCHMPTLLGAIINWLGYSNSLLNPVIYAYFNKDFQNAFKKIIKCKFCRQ
Description: biochemical. The assay is classed as CHO-K1 membranes. On the set-up: radioligand competition binding on cell membranes, filtration and TopCount scintillation counting. To be noted: radioligand displacement; read-out: 5‐HT1A / pIC50 (converted). The procedure:
Competition binding was performed in duplicate in the wells of a 96‐well plate containing binding buffer (optimized for each receptor), cell membrane extracts (approximately 20,000 cells distributed in the 96‐well plate), radiotracer, and test agonist. Non‐specific binding was determined by co‐incubation with 200‐fold excess of competitor. Cells were incubated and exposed to varying concentrations (1 pM to 10 μM) of a range of displacer agonists (see below). The samples were incubated in a final volume of 0.1 ml and then filtered over Unifilter plates (Perkin Elmer, Massachusetts, USA) pretreated for 2 hr to limit tracer non‐specific binding. Filters were washed five times with 0.5 ml of ice‐cold washing buffer (tris 50 mM pH 7.4) and 50 μl of Microscint 20 (Perkin Elmer) were added to each filter. The plates were incubated 15 min at room temperature on an orbital shaker and then counted with a TopCount™ (Perkin Elmer) for 1 min per well. […] Additionally, the reference values obtained were compared to historical values obtained from the same receptor and used to validate the experimental session. […] For the new assays developed in this study (i.e., 5‐ht1E receptor), the two independent pIC50 determined must be concordant with a 1 log unit interval for the assays to be validated.
(In general: In a radioligand displacement assay an active substance lowers the binding of a labelled ligand.)

Assay [3] deals with T2, 5-HT1A receptor. The assay can be described thus: biochemical. On the set-up: GTPγS agonist functional assay. To be noted: GTPγS. The assay is classed as CHO-K1 membranes. An excerpt: Additionally, the reference values obtained were compared to historical values obtained from the same receptor and used to validate the experimental session. […] For the new assays developed in this study (i.e., 5‐ht1E receptor), the two independent pIC50 determined must be concordant with a 1 log unit interval for the assays to be validated.

For assay [4], the target named is T1, 5-HT2A receptor. Description: cell-based. On the set-up: species or system CHO-K1; IPOne HTRF agonist assay, IP1 accumulation in adherent transfected cells. The procedure:
The assay was performed on adherent cells. For agonist testing, the medium was removed and 20 μl of assay buffer plus 20 μl of the studied agonist or the reference agonist were added in each well. The plate was incubated for 60 min at 37°C with 5% CO2. IP1‐D2 reagent and anti‐IP1 cryptate reagents were dispensed in the wells, and IP1 concentrations were then measured following the manufacturer instructions (IPOne HTRF assay kit; Cisbio International, Codolet, France). In brief, increasing concentrations of agonists were added to stably transfected cells in buffer in an Optiplate (PerkinElmer Life Sciences). The plates were incubated, and cells were then lysed by the addition of HTRF reagents (IP1‐D2 reagent and anti‐IP1 cryptate reagents) and diluted in lysis buffer, followed by incubation at room temperature. […] Additionally, the reference values obtained were compared to historical values obtained from the same receptor and used to validate the experimental session. […] For the new assays developed in this study (i.e., 5‐ht1E receptor), the two independent pIC50 determined must be concordant with a 1 log unit interval for the assays to be validated. […]

Assay [5] deals with T2, 5-HT1A receptor. The assay can be described thus: cell-based. On the set-up: species or system CHO-K1; cAMP HTRF agonist assay, Gi coupled receptors, inhibition of stimulated cAMP. To be noted: cAMP. The procedure: Concentration–response curves were performed in parallel with the agonists. […] After addition of the lysis buffer and 1‐hr incubation, cAMP concentrations were estimated according to the manufacturer specification with the HTRF kit (Cisbio International, Codelet, France). In brief, increasing concentrations of agonists were added to stably transfected cells in buffer in an Optiplate (PerkinElmer Life Sciences, Massachusetts, USA). The plates were incubated, and cells were then lysed by the addition of HTRF reagents (cAMP‐Cryptate and anti‐cAMP‐d2 reagents) and diluted in lysis buffer, followed by incubation at room temperature. […] Additionally, the reference values obtained were compared to historical values obtained from the same receptor and used to validate the experimental session. […] For the new assays developed in this study (i.e., 5‐ht1E receptor), the two independent pIC50 determined must be concordant with a 1 log unit interval for the assays to be validated.

[6] abbreviates: radioligand displacement, read-out: 5‐HT2A / pIC50 (converted).
Where [7] appears, read: IP, read-out: 5‐HT2A / IP (converted).

Molecules are shown by their SMILES. Structures can show the parent of a compound that is named as a salt. Where two headings read alike, the source gives them in different places.

T1 sequence (P28223 whole entry): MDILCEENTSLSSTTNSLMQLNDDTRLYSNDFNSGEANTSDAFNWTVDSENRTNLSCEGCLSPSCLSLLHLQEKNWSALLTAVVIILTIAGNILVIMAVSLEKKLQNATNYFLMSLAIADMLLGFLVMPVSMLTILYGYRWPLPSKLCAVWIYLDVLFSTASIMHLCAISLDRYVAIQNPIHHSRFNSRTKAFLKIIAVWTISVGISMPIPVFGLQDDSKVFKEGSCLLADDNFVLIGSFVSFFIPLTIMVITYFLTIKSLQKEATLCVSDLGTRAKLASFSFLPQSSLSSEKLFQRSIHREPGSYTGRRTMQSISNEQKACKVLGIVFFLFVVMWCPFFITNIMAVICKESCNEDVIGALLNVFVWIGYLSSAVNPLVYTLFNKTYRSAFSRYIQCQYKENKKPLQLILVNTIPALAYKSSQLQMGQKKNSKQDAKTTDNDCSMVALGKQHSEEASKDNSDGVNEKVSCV

As to `CNC1CCc2[nH]c3ccc(C(N)=O)cc3c2C1` (racemic) [Frovatriptan racemate], the IC50 in assay [1] (setting [6]) was over 10000 nM; in assay [2] it was 148 nM. Moreover, the Ki in assay [1] (radioligand displacement) was over 10000 nM. Further, the EC50 was 759 nM in assay [3], over 10000 nM in assay [4] (setting [7]) and over 10000 nM in assay [5].

Consider `CNS(=O)(=O)Cc1ccc2[nH]cc(CCCN3CCN(c4ncncc4OC)CC3)c2c1` [Avitriptan fumarate], for which the IC50 is 7760 nM in assay [1] (setting [6]) and 63.1 nM in assay [2]. For the same molecule, the EC50 in assay [3] was 646 nM; in assay [4] (setting [7]), 123 nM; in assay [5], over 10000 nM.

For `N#Cc1ccc(N2CCN(C(=O)COc3ccc4[nH]cc(CCN)c4c3)CC2)cc1` [Donitriptan hydrochloride], the IC50 is 1480 nM in assay [1] (setting [6]) and 38 nM in assay [2]. Also, the EC50 in assay [3] is 182 nM; in assay [4] (setting [7]) it was 7.94 nM; in assay [5] it was 1150 nM.

`CN1CCC[C@@H]1Cc1c[nH]c2ccc(CCS(=O)(=O)c3ccccc3)cc12` [Eletriptan hydrobromide]: the IC50 in assay [1] (setting [6]) is 3800 nM; in assay [2], 6.31 nM. The EC50 is 417 nM in assay [3], 851 nM in assay [4] (setting [7]) and 1820 nM in assay [5].

`CN(C)[C@@H]1CCc2[nH]c3ccc(NC(=O)c4ccc(F)cc4)cc3c2C1` [LY344864 hydrochloride]: the IC50 in assay [1] was 7760 nM; in assay [2], 759 nM. The EC50 in assay [3], in assay [4] and in assay [5] was over 10000 nM each time.

For the molecule `CNS(=O)(=O)CCc1ccc2[nH]cc(C3CCN(C)CC3)c2c1` [Naratriptan hydrochloride], the IC50 in assay [1] (setting [6]) was over 10000 nM; in assay [2], 49 nM. Besides, the Ki in assay [1] (radioligand displacement) is over 10000 nM. The figures for the EC50 in assay [3], in assay [4] (setting [7]) and in assay [5] were 302 nM, over 10000 nM and over 10000 nM, respectively.
